Measurements reported in ChEMBL document CHEMBL1139684, “Potent benzimidazolone based human beta(3)-adrenergic receptor agonists” (Bioorg Med Chem Lett, 2006).

Legend:
[1] = target: Beta-1 adrenergic receptor (Homo sapiens, UniProt P08588); assay: Agonist activity at human beta-1 adrenergic receptor expressed in CHO cells assessed as cAMP levels; assay type: functional, cell-based
[2] = target: Beta-3 adrenergic receptor (Rattus norvegicus, UniProt P26255); assay: Agonist activity at rat beta-3 adrenergic receptor expressed in CHO cells assessed as cAMP levels; assay type: functional, cell-based
Beta-3 adrenergic receptor (Rattus norvegicus, UniProt P26255), sequence (P26255 whole entry): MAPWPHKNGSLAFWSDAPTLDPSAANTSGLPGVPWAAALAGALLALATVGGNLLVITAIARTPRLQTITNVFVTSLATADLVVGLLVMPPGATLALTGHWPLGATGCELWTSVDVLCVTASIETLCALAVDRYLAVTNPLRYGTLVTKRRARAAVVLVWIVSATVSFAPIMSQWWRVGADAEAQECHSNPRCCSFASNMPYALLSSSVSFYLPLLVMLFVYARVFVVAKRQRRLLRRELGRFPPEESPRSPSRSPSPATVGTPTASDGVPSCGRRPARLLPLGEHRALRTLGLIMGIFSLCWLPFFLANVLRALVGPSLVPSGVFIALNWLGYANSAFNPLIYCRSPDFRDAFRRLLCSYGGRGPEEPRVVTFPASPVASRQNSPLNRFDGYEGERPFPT

[3] = target: T1, Beta-3 adrenergic receptor (Homo sapiens, UniProt P13945); assay: Agonist activity at human beta3 adrenergic receptor expressed in CHO cells assessed as cAMP levels; assay type: functional, cell-based
Target sequence in this assay (P13945 whole entry): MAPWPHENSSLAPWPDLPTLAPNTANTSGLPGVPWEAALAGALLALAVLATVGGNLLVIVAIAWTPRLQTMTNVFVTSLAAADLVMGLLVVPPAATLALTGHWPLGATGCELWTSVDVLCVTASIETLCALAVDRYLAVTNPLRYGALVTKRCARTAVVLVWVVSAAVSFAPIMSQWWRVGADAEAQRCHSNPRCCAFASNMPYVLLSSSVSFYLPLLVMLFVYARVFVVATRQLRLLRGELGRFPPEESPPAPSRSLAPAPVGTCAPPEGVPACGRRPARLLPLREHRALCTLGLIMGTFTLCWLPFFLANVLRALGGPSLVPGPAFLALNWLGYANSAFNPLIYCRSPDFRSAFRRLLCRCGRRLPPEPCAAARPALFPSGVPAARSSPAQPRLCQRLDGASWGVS

[4] = target: Beta-3 adrenergic receptor (Rattus norvegicus) (UniProt P26255); assay: Agonist activity at rat beta-3 adrenergic receptor expressed in CHO cells assessed as cAMP levels relative to isoproterenol; assay type: functional, cell-based; settings: filed as agonist
Beta-3 adrenergic receptor (Rattus norvegicus), sequence (P26255 whole entry): as the sequence (P26255 whole entry) above

Rattus norvegicus [5] = assay: Increase in energy expenditure in DIO Long-Evans rat at 10 mg/kg, po after 20 hrs relative to control; assay type: functional
[6] = target: T1, Beta-3 adrenergic receptor; assay: Agonist activity at human beta-3 adrenergic receptor expressed in CHO cells assessed as cAMP levels relative to isoproterenol; assay type: functional, cell-based; settings: filed as agonist
Target sequence in this assay (P13945 whole entry, looked up): as the sequence (P13945 whole entry) above

Rattus norvegicus [7] = assay: Reduction in respiratory quotient in DIO Long-Evans rat at 10 mg/kg, po after 20 hrs relative to control; assay type: functional; set-up: scale not given: the % may be the effect or the level left
Rattus norvegicus [8] = species: Rattus norvegicus; assay: Increase in heart rate in rat at 0.01 mM; assay type: functional
[9] = target: Beta-2 adrenergic receptor (Homo sapiens, UniProt P07550); assay: Agonist activity at human beta-2 adrenergic receptor expressed in CHO cells assessed as cAMP levels; assay type: functional, cell-based
Beta-2 adrenergic receptor, sequence (P07550 whole entry): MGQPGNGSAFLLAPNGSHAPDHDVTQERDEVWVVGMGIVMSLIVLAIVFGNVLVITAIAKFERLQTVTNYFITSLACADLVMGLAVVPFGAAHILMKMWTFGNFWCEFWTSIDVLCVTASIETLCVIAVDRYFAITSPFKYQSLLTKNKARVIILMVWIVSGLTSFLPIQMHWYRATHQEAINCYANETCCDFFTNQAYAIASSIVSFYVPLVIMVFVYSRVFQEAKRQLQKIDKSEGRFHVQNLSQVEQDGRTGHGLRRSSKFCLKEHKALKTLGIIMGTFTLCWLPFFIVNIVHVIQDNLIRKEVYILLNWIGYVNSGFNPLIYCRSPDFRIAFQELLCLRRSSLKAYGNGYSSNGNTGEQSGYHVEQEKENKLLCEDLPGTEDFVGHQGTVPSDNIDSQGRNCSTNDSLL

[10] = AUC (0-6h) in DIO Long-Evans rat at 10 mg/kg, po; assay type: ADME, organism-based; set-up: time < 6 hr, dose 10 mg/kg, route oral; settings: plasma
[11] = target: T1, Beta-3 adrenergic receptor; assay: Agonist activity at human beta-3 adrenergic receptor expressed in CHO cells assessed as cAMP levels at 100 nM relative to isoproterenol; assay type: functional, cell-based
Target sequence in this assay (P13945 whole entry, looked up): as the sequence (P13945 whole entry) above

Beta-1 adrenergic receptor, sequence (P08588 whole entry): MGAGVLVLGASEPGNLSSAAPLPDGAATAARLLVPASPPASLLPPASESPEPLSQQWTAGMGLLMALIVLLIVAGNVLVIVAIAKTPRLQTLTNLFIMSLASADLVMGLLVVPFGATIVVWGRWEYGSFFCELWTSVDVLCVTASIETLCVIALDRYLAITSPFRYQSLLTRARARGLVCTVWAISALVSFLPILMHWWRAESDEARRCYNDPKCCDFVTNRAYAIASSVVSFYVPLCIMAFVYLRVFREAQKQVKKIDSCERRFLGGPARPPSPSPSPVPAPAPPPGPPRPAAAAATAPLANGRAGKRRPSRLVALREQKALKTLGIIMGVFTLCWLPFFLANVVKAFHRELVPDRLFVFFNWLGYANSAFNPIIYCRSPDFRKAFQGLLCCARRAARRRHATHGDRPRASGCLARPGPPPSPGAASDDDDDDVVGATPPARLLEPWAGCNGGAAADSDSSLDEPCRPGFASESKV

| EC50 [1] | EC50 [3] | Emax [6] | Activity [11] | Activity ([11]; filed as agonist) | Structure (SMILES) | Activity (Rattus norvegicus [8]) | also measured |
| --- | --- | --- | --- | --- | --- | --- | --- |
| > 10 µM | 0.0101 µM (agonist) | 58.2% | – | – | CC(C)(Cc1ccc(Oc2ccc(C(N)=O)cn2)cc1)NC[C@H](O)COc1cccc2[nH]c(=O)n(CCC3CCC3)c12 | 6.5% | EC50 [2]: 0.0287 µM (agonist); Emax [4]: 49.6%; Activity (Rattus norvegicus [5]): 18%; Activity (Rattus norvegicus [7]): 29%; EC50 [9]: > 10 µM; AUC(0-t) at 6 h [10]: 112 ng·h/mL |
| – | – | – | 29% | – | CC(Cc1ccc(Oc2ccc(C#N)cn2)cc1)NC[C@H](O)COc1cccc2c1[nH]c(=O)n2C (stereo not given in full) | – | – |
| > 10 µM | 0.0052 µM (agonist) | 73.9% | – | – | CCCn1c(=O)[nH]c2cccc(OC[C@@H](O)CNC(C)(C)Cc3ccc(Oc4ccc(C(N)=O)cn4)cc3)c21 | 19.9% | EC50 [9]: > 10 µM |
| – | – | – | 30% | – | CC(Cc1ccc(Oc2ccc(C(=O)O)cc2)cc1)NC[C@H](O)COc1cccc2c1[nH]c(=O)n2C (stereo not given in full) | – | – |
| – | – | – | 11% | – | CC(Cc1ccc(Oc2ccc(C#N)cn2)cc1)NC[C@H](O)COc1cccc2c1n(C)c(=O)n2C (stereo not given in full) | – | – |
| > 10 µM | 0.0052 µM (agonist) | 65.1% | – | – | CCn1c(=O)[nH]c2cccc(OC[C@@H](O)CNC(C)(C)Cc3ccc(Oc4ccc(C(N)=O)cn4)cc3)c21 | 20.8% | EC50 [9]: > 10 µM |
| > 10 µM | 0.0054 µM (agonist) | 67.9% | – | – | CC(C)(Cc1ccc(Oc2ccc(C(N)=O)cn2)cc1)NC[C@H](O)COc1cccc2[nH]c(=O)n(CCC3CC3)c12 | 8.9% | EC50 [2]: 0.0068 µM (agonist); Emax [4]: 42.7%; EC50 [9]: > 10 µM |
| – | – | – | 28% | – | CC(Cc1ccc(Oc2ccc(C(=O)O)cc2)cc1)NC[C@H](O)COc1cccc2c1n(C)c(=O)n2C (stereo not given in full) | – | – |
| – | – | – | – | 99% | CC(Cc1ccc(Oc2ccc(C(=O)O)cc2)cc1)NC[C@H](O)COc1cccc2[nH]c(=O)[nH]c12 (stereo not given in full) | – | – |
| – | – | – | – | 83% | CC(Cc1ccc(Oc2ccc(C#N)cn2)cc1)NC[C@H](O)COc1cccc2[nH]c(=O)n(C)c12 (stereo not given in full) | – | – |
| – | – | – | – | 84% | CC(Cc1ccc(Oc2ccc(C(=O)O)cc2)cc1)NC[C@H](O)COc1cccc2[nH]c(=O)n(C)c12 (stereo not given in full) | – | – |
| – | – | – | – | 97% | CC(Cc1ccc(Oc2ccc(C(N)=O)cn2)cc1)NC[C@H](O)COc1cccc2[nH]c(=O)[nH]c12 (stereo not given in full) | – | – |
| > 10 µM | 0.0117 µM (agonist) | 63.7% | – | – | CC(C)(Cc1ccc(Oc2ccc(C(N)=O)cn2)cc1)NC[C@H](O)COc1cccc2[nH]c(=O)n(CCC3CCCC3)c12 | 9.9% | – |
| – | – | – | 33% | – | CC(Cc1ccc(Oc2ccc(C(N)=O)cn2)cc1)NC[C@H](O)COc1cccc2c1[nH]c(=O)n2C (stereo not given in full) | – | – |
| – | – | – | 25% | – | CC(Cc1ccc(Oc2ccc(C(N)=O)cn2)cc1)NC[C@H](O)COc1cccc2c1n(C)c(=O)n2C (stereo not given in full) | – | – |
| – | – | – | – | 87% | CC(Cc1ccc(Oc2ccc(C(N)=O)cn2)cc1)NC[C@H](O)COc1cccc2[nH]c(=O)n(C)c12 (stereo not given in full) | – | – |

| Structure (SMILES) | EC50 [1] | EC50 [3] | Emax [6] | Activity [11] | Activity ([11]; filed as agonist) | Activity (Rattus norvegicus [8]) | also measured |
| --- | --- | --- | --- | --- | --- | --- | --- |
| CC(Cc1ccc(Oc2ccc(C#N)cn2)cc1)NC[C@H](O)COc1cccc2[nH]c(=O)[nH]c12 (stereo not given in full) | – | – | – | – | 88% | – | – |
| Cn1c(=O)[nH]c2cccc(OC[C@@H](O)CNC(C)(C)Cc3ccc(Oc4ccc(C(N)=O)cn4)cc3)c21 | 0.0087 µM (agonist) | 0.0071 µM (agonist) | 79.7% | – | – | 17.7% | EC50 [2]: 0.0245 µM (agonist); Emax [4]: 59.6%; EC50 [9]: > 10 µM |
